Measured values published in ChEMBL document CHEMBL4507276 (2021).

How the values were obtained:
[1] = biological target: Serine/threonine-protein kinase mTOR (Homo sapiens) (UniProt P42345); settings: Compound concentration 1000.0 nM
[2] = biological target: T1, Serine/threonine-protein kinase NLK (Homo sapiens) (UniProt Q9UBE8); settings: Compound concentration 1000.0 nM
T1 sequence (whole entry): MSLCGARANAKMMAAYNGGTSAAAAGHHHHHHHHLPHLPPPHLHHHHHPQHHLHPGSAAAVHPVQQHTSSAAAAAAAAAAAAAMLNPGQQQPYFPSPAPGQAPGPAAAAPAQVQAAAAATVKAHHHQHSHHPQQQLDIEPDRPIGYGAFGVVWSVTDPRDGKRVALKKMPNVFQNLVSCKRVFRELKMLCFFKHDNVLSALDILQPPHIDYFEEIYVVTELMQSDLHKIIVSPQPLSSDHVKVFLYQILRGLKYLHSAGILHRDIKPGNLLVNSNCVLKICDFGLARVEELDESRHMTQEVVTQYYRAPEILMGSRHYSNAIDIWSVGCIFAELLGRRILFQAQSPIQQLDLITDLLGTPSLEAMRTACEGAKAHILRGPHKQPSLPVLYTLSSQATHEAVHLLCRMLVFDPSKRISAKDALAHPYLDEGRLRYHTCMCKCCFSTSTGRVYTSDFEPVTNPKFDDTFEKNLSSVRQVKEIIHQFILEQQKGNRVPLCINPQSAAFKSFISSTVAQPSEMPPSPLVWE

[3] = biological target: Muscarinic acetylcholine receptor M5 (Homo sapiens) (UniProt P08912); settings: Compound concentration 10.0 uM
Sequence of Muscarinic acetylcholine receptor M5 (Homo sapiens) (P08912 whole entry): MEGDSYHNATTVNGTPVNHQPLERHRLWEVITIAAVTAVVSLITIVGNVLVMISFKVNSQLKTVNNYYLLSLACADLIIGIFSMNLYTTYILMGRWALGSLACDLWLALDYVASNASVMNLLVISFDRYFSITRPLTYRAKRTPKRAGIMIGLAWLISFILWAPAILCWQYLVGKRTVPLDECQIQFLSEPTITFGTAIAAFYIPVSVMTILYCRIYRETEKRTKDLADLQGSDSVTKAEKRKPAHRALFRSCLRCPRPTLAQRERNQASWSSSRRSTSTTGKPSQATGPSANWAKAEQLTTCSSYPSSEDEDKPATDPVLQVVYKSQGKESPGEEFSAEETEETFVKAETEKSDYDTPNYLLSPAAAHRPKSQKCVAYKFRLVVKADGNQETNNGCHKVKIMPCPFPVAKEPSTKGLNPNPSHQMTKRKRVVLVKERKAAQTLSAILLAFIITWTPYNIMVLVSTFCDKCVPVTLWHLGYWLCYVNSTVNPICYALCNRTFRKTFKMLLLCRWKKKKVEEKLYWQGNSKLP

[4] = biological target: Activated CDC42 kinase 1 (Homo sapiens) (UniProt Q07912); settings: Compound concentration 1000.0 nM
Sequence of Activated CDC42 kinase 1 (Homo sapiens) (Q07912 whole entry, looked up): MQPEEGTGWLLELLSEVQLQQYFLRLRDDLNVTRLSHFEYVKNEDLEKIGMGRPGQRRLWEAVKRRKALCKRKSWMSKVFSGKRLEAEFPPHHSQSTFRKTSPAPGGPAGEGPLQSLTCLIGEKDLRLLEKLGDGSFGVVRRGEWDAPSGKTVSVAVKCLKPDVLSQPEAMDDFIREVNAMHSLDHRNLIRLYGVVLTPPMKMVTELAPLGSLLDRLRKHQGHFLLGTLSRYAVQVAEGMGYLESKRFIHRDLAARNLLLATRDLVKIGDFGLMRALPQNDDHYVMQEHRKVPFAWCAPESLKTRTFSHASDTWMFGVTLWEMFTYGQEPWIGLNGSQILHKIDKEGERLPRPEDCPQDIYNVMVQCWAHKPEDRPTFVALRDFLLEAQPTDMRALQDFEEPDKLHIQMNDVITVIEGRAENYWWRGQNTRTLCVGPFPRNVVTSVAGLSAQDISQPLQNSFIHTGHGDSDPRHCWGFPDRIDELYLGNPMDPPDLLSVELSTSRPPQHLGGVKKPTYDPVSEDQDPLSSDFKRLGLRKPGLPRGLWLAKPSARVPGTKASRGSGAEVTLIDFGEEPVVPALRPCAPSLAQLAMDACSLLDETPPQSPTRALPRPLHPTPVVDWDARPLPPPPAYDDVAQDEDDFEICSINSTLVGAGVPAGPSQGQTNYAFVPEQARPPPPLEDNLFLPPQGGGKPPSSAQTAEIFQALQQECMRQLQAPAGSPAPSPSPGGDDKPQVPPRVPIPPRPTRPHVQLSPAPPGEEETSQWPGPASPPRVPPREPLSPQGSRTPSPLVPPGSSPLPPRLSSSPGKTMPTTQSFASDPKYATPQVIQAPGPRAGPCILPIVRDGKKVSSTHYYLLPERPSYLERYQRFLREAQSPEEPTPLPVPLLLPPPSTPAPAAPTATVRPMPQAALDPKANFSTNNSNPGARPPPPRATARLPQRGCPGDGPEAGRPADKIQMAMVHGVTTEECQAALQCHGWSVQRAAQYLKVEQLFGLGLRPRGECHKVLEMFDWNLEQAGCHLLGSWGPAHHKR

[5] = biological target: T2, Tyrosine-protein kinase JAK3 (Homo sapiens) (UniProt P52333); settings: Compound concentration 1000.0 nM
T2 sequence (whole entry): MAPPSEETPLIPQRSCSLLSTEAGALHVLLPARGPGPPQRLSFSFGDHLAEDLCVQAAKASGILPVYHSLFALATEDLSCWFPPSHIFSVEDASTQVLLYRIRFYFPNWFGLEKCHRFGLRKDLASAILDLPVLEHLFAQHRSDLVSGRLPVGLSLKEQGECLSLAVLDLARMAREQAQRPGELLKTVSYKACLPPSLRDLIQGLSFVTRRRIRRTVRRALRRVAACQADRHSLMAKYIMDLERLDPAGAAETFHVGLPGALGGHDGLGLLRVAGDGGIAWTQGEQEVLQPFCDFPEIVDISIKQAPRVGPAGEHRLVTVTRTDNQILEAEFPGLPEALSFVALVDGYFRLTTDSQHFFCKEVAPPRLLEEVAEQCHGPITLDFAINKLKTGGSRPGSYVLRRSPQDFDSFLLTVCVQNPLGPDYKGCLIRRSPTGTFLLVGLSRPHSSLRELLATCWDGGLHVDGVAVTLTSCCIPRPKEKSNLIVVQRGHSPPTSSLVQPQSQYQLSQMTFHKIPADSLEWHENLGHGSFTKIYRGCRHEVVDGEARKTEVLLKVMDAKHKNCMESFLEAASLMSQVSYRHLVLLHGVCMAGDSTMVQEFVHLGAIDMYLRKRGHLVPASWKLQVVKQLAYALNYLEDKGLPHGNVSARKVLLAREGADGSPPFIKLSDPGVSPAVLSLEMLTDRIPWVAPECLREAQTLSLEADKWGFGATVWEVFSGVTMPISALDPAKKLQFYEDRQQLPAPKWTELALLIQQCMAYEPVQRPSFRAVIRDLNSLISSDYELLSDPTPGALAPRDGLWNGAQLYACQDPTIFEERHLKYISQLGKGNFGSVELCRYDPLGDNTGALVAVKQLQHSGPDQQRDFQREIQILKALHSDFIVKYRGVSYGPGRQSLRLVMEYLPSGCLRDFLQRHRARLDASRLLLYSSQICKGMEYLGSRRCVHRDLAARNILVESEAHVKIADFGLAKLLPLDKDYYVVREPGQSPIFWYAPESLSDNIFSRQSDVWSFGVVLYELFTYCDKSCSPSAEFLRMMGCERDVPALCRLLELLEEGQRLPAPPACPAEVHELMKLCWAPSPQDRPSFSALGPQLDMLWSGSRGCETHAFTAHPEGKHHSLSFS

[6] = biological target: Dual specificity protein kinase CLK2 (Homo sapiens) (UniProt P49760); settings: Compound concentration 1000.0 nM
Sequence of Dual specificity protein kinase CLK2 (Homo sapiens) (P49760 whole entry, looked up): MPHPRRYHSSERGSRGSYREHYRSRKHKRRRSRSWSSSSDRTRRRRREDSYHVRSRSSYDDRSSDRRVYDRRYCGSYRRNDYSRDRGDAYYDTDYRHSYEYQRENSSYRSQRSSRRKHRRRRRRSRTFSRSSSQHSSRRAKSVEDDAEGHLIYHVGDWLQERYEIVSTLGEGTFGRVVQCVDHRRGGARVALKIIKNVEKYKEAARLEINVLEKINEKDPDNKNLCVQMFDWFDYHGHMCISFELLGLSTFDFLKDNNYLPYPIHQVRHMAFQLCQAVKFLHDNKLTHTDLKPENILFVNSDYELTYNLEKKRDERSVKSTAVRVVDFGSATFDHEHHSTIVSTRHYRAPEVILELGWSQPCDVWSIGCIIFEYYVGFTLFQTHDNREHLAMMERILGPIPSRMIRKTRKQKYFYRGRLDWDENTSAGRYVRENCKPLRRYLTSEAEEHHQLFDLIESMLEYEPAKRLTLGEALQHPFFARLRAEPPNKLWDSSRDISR

[7] = biological target: T3, D(4) dopamine receptor (Homo sapiens) (UniProt P21917); settings: Compound concentration 10.0 uM
T3 sequence (whole entry): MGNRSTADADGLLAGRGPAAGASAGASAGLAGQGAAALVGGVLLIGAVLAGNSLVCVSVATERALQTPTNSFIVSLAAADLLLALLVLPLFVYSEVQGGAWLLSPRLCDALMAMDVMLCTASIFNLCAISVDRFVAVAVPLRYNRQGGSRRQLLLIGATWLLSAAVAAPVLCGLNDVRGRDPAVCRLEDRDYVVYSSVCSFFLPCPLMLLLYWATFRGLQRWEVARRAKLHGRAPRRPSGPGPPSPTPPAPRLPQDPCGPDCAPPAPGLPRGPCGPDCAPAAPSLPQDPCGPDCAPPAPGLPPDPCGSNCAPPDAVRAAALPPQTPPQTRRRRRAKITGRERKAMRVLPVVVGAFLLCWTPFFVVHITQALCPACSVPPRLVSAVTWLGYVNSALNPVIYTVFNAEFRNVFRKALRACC

[8] = biological target: Phosphatidylinositol 4-phosphate 3-kinase C2 domain-containing subunit beta (Homo sapiens) (UniProt O00750); settings: Compound concentration 1000.0 nM
Sequence of Phosphatidylinositol 4-phosphate 3-kinase C2 domain-containing subunit beta (Homo sapiens) (O00750 whole entry, the tested form may be a part): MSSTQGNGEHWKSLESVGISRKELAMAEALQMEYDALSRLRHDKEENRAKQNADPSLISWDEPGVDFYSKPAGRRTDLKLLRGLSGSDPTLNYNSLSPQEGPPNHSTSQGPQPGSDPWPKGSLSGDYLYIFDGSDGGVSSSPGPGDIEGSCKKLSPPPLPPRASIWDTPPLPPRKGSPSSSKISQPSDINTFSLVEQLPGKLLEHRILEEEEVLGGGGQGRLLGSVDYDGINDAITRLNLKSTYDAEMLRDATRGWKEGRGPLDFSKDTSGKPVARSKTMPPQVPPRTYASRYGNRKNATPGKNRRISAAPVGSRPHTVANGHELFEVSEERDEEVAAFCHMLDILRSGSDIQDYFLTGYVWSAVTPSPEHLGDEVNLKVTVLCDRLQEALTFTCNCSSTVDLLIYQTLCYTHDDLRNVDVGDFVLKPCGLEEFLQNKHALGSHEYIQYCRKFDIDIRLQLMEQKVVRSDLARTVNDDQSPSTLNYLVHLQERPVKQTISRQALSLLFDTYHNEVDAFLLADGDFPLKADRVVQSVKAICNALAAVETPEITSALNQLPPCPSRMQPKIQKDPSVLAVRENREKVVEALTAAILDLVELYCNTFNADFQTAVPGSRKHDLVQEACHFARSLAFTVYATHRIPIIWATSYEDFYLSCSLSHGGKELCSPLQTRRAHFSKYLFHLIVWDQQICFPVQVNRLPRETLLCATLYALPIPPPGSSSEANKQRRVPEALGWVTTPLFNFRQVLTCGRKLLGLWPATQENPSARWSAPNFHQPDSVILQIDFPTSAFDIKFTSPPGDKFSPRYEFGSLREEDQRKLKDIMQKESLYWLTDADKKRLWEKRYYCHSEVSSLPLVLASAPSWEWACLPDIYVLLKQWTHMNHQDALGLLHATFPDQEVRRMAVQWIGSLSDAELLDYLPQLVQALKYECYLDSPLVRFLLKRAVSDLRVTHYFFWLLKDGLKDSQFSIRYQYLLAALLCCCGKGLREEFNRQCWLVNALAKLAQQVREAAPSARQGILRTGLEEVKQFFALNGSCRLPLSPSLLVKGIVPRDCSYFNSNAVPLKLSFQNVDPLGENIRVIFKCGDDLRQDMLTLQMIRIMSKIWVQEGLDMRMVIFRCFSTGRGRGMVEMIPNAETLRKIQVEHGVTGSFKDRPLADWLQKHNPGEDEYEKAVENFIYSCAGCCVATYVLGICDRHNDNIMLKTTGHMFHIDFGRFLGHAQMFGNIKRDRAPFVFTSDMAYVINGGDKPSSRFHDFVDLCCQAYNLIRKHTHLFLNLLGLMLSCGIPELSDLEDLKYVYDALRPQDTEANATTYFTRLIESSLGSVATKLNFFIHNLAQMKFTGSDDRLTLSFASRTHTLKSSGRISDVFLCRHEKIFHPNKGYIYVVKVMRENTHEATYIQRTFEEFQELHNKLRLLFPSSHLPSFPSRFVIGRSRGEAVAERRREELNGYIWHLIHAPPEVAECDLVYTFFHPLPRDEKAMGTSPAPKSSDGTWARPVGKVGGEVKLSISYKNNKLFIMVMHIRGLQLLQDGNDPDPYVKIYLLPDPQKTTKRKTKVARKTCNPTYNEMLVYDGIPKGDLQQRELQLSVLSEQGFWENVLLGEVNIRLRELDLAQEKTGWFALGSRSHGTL

CN(C)C(=O)Cn1cc(-c2nc(C3(c4ccc(-c5cnc(N)nc5)cc4)CC3)no2)cn1 [BI 0153]
inactive: residual activity [1] 91% | residual activity [2] 94% | inhibition [3] -1.63% | residual activity [4] 96% | residual activity [5] 80% | residual activity [6] 94% | inhibition [7] 1.18% | residual activity [8] 100%

CN(C)C(=O)Cn1cc(-c2nc([C@@](C)(c3ccc(-c4cnc(N)nc4)cc3)C3CC3)no2)cn1 [BI 665915]
inactive: residual activity [1] 100% | residual activity [2] 95% | inhibition [3] 5.21% | residual activity [4] 91% | residual activity [5] 95% | residual activity [6] 96% | inhibition [7] 1.48% | residual activity [8] 96%
